Test results from US10322111B2, “Chemokine receptor binding heterocyclic compounds with enhanced efficacy” (Genzyme Corporation, priority 2001, dated 2019).
Where two headings read alike, the source gives them in different places.

Key:
[1] = tested on: CD34 positive progenitor cells
[2] = tested on: granulocyte macrophage (CFU-GM), erythroid (BFU-E), and multipotential (CFU-GEMM) progenitor cells; conditions: mice; for Fold Change Compared to Time 0, Progenitors, BFU-E / Fold Change Compared to Time 0, Progenitors, CFU-GEMM / Fold Change Compared to Time 0, Progenitors, GM / Absolute Progenitors Per ML Blood, BFU-E / Absolute Progenitors Per ML Blood, CFU-GEMM / Absolute Progenitors Per ML Blood, CFU-GM: methylcellulose culture; for Absolute Number Progenitors Per ML Blood, BFU-E / Absolute Number Progenitors Per ML Blood, CFU-GEMM / Absolute Number Progenitors Per ML Blood, CFU-GM: 1 hour post administration; for Absolute Progenitors Per ML Blood, BFU-E / Absolute Progenitors Per ML Blood, CFU-GEMM / Absolute Progenitors Per ML Blood, CFU-GM: single s.c. 5 mg/Kg
[3] = tested on: white blood cells
[4] = tested on: progenitor cells; conditions: mice, AMD3100 5 mg/Kg s.c. + MIP-1α 5 μg I.V., 11 hours after rhu G-CSF or saline, blood 1 hour later
Experimental: One hour later, the mice were sacrificed and the number of progenitor cells per mL of blood were measured.

[5] = volunteer P2, Day 2 after 80 μg/kg s.c.
[6] = volunteer P3, 1 Hr after 80 μg/kg s.c.
[7] = volunteer P3, 9 Hr after 80 μg/kg s.c.
[8] = volunteer P3, Day 2 after 80 μg/kg s.c.
[9] = volunteer P4, 1 Hr after 80 μg/kg s.c.
[10] = volunteer P4, 6 Hr after 80 μg/kg s.c.
[11] = volunteer P4, 9 Hr after 80 μg/kg s.c.
[12] = volunteer P4, Day 2 after 80 μg/kg s.c.
[13] = volunteer P5, 1 Hr after 80 μg/kg s.c.
[14] = volunteer P5, 6 Hr after 80 μg/kg s.c.
[15] = volunteer P5, 9 Hr after 80 μg/kg s.c.
[16] = volunteer P5, Day 2 after 80 μg/kg s.c.

With `c1cc(CN2CCCNCCNCCCNCC2)ccc1CN1CCCNCCNCCCNCC1` [AMD3100, 1,1′-[1,4-phenylene-bis(methylene)]-bis-1,4,8,11-tetraazacyclotetradecane] the CD34 positive cells [1, 5] was “.12 percentage of the total WBC's”, the CD34 positive cells [1, 6] was “.16 percentage of the total WBC's” and the CD34 positive cells ([1]; volunteer P3, 3 Hr after 80 μg/kg s.c.) was “.06 percentage of the total WBC's”. For the same compound, the CD34 positive cells [1, 7] was “.11 percentage of the total WBC's”, the CD34 positive cells [1, 8] was “.07 percentage of the total WBC's” and the CD34 positive cells [1, 9] was “.07 percentage of the total WBC's”. For the same compound, the CD34 positive cells ([1]; volunteer P4, 3 Hr after 80 μg/kg s.c.) was “.09 percentage of the total WBC's”, the CD34 positive cells [1, 10] was “.09 percentage of the total WBC's” and the CD34 positive cells [1, 11] was “.1 percentage of the total WBC's”. For the same compound, the CD34 positive cells [1, 12] was “.1 percentage of the total WBC's”, the CD34 positive cells [1, 13] was “.12 percentage of the total WBC's” and the CD34 positive cells ([1]; volunteer P5, 3 Hr after 80 μg/kg s.c.) was “.13 percentage of the total WBC's”. For the same compound, the CD34 positive cells [1, 14] was “.2 percentage of the total WBC's”, the CD34 positive cells [1, 15] was “.2 percentage of the total WBC's” and the CD34 positive cells [1, 16] was “.16 percentage of the total WBC's”. For the same compound, the “Fold Change Compared to Time 0, Progenitors, BFU-E” value ([2]; Time 2′) was 2.07 fold, the “Fold Change Compared to Time 0, Progenitors, CFU-GEMM” value ([2]; Time 2′) was 1.85 fold and the “Fold Change Compared to Time 0, Progenitors, GM” value ([2]; Time 2′) was 2.86 fold. The “Fold Change Compared to Time 0, Progenitors, BFU-E” value ([2]; Time 15″) was 2.72 fold, the “Fold Change Compared to Time 0, Progenitors, CFU-GEMM” value ([2]; Time 15″) was 3.51 fold and the “Fold Change Compared to Time 0, Progenitors, GM” value ([2]; Time 15″) was 2.73 fold. The “Fold Change Compared to Time 0, Progenitors, BFU-E” value ([2]; Time 30″) was 4.24 fold, the “Fold Change Compared to Time 0, Progenitors, CFU-GEMM” value ([2]; Time 30″) was 4.41 fold and the “Fold Change Compared to Time 0, Progenitors, GM” value ([2]; Time 30″) was 6.23 fold. The “Absolute Number Progenitors Per ML Blood, BFU-E” value ([2]; single s.c. 1 mg/kg) was 62 Per ML Blood, the “Absolute Number Progenitors Per ML Blood, CFU-GEMM” value ([2]; single s.c. 1 mg/kg) was 27.1 Per ML Blood and the “Absolute Number Progenitors Per ML Blood, CFU-GM” value ([2]; single s.c. 1 mg/kg) was 424 Per ML Blood. For the same compound, the “Absolute Number Progenitors Per ML Blood, BFU-E” value ([2]; single s.c. 2.5 mg/kg) was 98.9 Per ML Blood, the “Absolute Number Progenitors Per ML Blood, CFU-GEMM” value ([2]; single s.c. 2.5 mg/kg) was 70.6 Per ML Blood and the “Absolute Number Progenitors Per ML Blood, CFU-GM” value ([2]; single s.c. 2.5 mg/kg) was 687.6 Per ML Blood. The “Absolute Progenitors Per ML Blood, BFU-E” value ([2]; 15″) was 134.5 Per ML Blood, the “Absolute Progenitors Per ML Blood, CFU-GEMM” value ([2]; 15″) was 90.4 Per ML Blood and the “Absolute Progenitors Per ML Blood, CFU-GM” value ([2]; 15″) was 791.6 Per ML Blood. For the same compound, the “Absolute Progenitors Per ML Blood, BFU-E” value ([2]; 30″) was 209.3 Per ML Blood, the “Absolute Progenitors Per ML Blood, CFU-GEMM” value ([2]; 30″) was 113.5 Per ML Blood and the “Absolute Progenitors Per ML Blood, CFU-GM” value ([2]; 30″) was 1805.5 Per ML Blood. The “Absolute Progenitors Per ML Blood, BFU-E” value ([2]; 120″) was 102.3 Per ML Blood, the “Absolute Progenitors Per ML Blood, CFU-GEMM” value ([2]; 120″) was 47.6 Per ML Blood and the “Absolute Progenitors Per ML Blood, CFU-GM” value ([2]; 120″) was 828.7 Per ML Blood. The “Absolute Number Progenitors Per ML Blood, BFU-E” value ([2]; single s.c. 5 mg/kg) was 92.8 Per ML Blood, the “Absolute Number Progenitors Per ML Blood, CFU-GEMM” value ([2]; single s.c. 5 mg/kg) was 69.5 Per ML Blood and the “Absolute Number Progenitors Per ML Blood, CFU-GM” value ([2]; single s.c. 5 mg/kg) was 608.4 Per ML Blood. For the same compound, the “Absolute Number Progenitors Per ML Blood, BFU-E” value ([2]; single s.c. 10 mg/kg) was 120.5 Per ML Blood, the “Absolute Number Progenitors Per ML Blood, CFU-GEMM” value ([2]; single s.c. 10 mg/kg) was 79.8 Per ML Blood and the “Absolute Number Progenitors Per ML Blood, CFU-GM” value ([2]; single s.c. 10 mg/kg) was 825.6 Per ML Blood. The “time post-administration at which elevation of the white blood cell count maximized” value ([3]; human volunteers, 80 μg/kg s.c.) was 6 h, the white blood cells ([3]; volunteer P1, 1 Hr after 80 μg/kg s.c.) was 14.8 ×10^3 WBC's and the white blood cells ([3]; volunteer P1, 2 Hr after 80 μg/kg s.c.) was 21.4 ×10^3 WBC's. For the same compound, the white blood cells ([3]; volunteer P1, 4 Hr after 80 μg/kg s.c.) was 23.2 ×10^3 WBC's, the white blood cells ([3]; volunteer P1, 6 Hr after 80 μg/kg s.c.) was 26.2 ×10^3 WBC's and the white blood cells ([3]; volunteer P1, 9 Hr after 80 μg/kg s.c.) was 22.3 ×10^3 WBC's. For the same compound, the white blood cells ([3]; volunteer P1, 30 Min after 80 μg/kg s.c.) was 8.02 ×10^3 WBC's, the white blood cells ([3]; volunteer P1, Day 2 after 80 μg/kg s.c.) was 7.07 ×10^3 WBC's and the white blood cells ([3]; volunteer P2, 1 Hr after 80 μg/kg s.c.) was 8.93 ×10^3 WBC's. The white blood cells ([3]; volunteer P2, 2 Hr after 80 μg/kg s.c.) was 13.5 ×10^3 WBC's, the white blood cells ([3]; volunteer P2, 4 Hr after 80 μg/kg s.c.) was 18.00 ×10^3 WBC's and the white blood cells ([3]; volunteer P2, 6 Hr after 80 μg/kg s.c.) was 19.2 ×10^3 WBC's. For the same compound, the white blood cells ([3]; volunteer P2, 9 Hr after 80 μg/kg s.c.) was 19.6 ×10^3 WBC's, the white blood cells ([3]; volunteer P2, 30 Min after 80 μg/kg s.c.) was 6.53 ×10^3 WBC's and the white blood cells [3, 5] was 8.03 ×10^3 WBC's. The white blood cells [3, 6] was 9.28 ×10^3 WBC's, the white blood cells ([3]; volunteer P3, 4 Hr after 80 μg/kg s.c.) was 18.10 ×10^3 WBC's and the white blood cells ([3]; volunteer P3, 6 Hr after 80 μg/kg s.c.) was 17.9 ×10^3 WBC's. For the same compound, the white blood cells [3, 7] was 18.4 ×10^3 WBC's, the white blood cells ([3]; volunteer P3, 30 Min after 80 μg/kg s.c.) was 7.14 ×10^3 WBC's and the white blood cells [3, 8] was 4.98 ×10^3 WBC's. For the same compound, the white blood cells [3, 9] was 7.38 ×10^3 WBC's, the white blood cells ([3]; volunteer P4, 2 Hr after 80 μg/kg s.c.) was 12.4 ×10^3 WBC's and the white blood cells ([3]; volunteer P4, 4 Hr after 80 μg/kg s.c.) was 14.6 ×10^3 WBC's. For the same compound, the white blood cells [3, 10] was 15.8 ×10^3 WBC's, the white blood cells [3, 11] was 13.9 ×10^3 WBC's and the white blood cells ([3]; volunteer P4, 30 Min after 80 μg/kg s.c.) was 4.37 ×10^3 WBC's. For the same compound, the white blood cells [3, 12] was 4.98 ×10^3 WBC's, the white blood cells [3, 13] was 8.43 ×10^3 WBC's and the white blood cells ([3]; volunteer P5, 4 Hr after 80 μg/kg s.c.) was 16.90 ×10^3 WBC's. For the same compound, the white blood cells [3, 14] was 19.3 ×10^3 WBC's, the white blood cells [3, 15] was 19.00 ×10^3 WBC's and the white blood cells ([3]; volunteer P5, 30 Min after 80 μg/kg s.c.) was 6.08 ×10^3 WBC's. For the same compound, the white blood cells [3, 16] was 4.57 ×10^3 WBC's and the “mobilization of progenitor cells in combination with mu MIP-1α” value [4] was “additive to greater than additive”.
